# EP0334369B1, “Antiarteriosclerotic agent” (DAIICHI PHARMACEUTICAL CO., LTD., priority 1988, dated 1989)
# Where “and” joins values, the source holds several entries; their conditions need not be identical. Equal entries are not always repeated. Structures can show the parent of a compound that is named as a salt.
# Test system: Vascular smooth muscle cells (VSMC)
# Assay: Determination of DT (time required for doubling the number of cells) of vascular smooth muscle culture cells
# Format: cell-based
# Details: Treated Group; VSMC from aorta of SHR, 48-hour cultivation with Compound A; concentration not given; P < 0.02 vs. control group by Student's t-test; hydrate
# Description: Effects on Proliferation of Vascular Smooth Muscle Culture Cells Vascular smooth muscle cells (hereinafter referred to as VSMC) were separated from the aorta of seven 7-week-old male SHR and cultured according to the explant method [cf. Ross, R.J. Cell Biol., Vol. 50, 172 (1971)]. Culture cells of passage Nos. 4 to 10 were used for testing. The proliferation ability of VSMC was evaluated in terms of time required for doubling the number of the cells (hereinafter referred to as DT) and ³H-TU according to the following test methods. 1) Determination of DT: VSMC (about 5 x 10⁴ cells) were cultured on a plate for 24 hours. Compound A was added to the culture, and cultivation was continued for an additional period of 48 hours. The number of cells before the addition of Compound A and after the 48-hour cultivation were counted by means of a light microscope, and DT was obtained therefrom by the equation: [formula] wherein t₁ is the time at which the number of cells before addition of Compound A is counted; t₂ is the time at which the number of cells after addition of Compound A is counted; N₁ is the number of cells at t₁; and N₂ is the number of cells at t₂.
smiles,measurement,value
"O=C(O)c1ccc2c(c1)CCC(Cn1ccnc1)C2 (stereo not shown) [Compound A, 6-(1-Imidazolylmethyl)-5,6,7,8-tetrahydro-2-naphthalenecarboxylic acid hydrochloride 1/2 hydrate]",DT,26.16 h and 27.81 h and 26.59 h and 28.94 h and 21.66 h and 24.41 h
